Format in all cases: biochemical
Assay [1] concerns the target T1, 320 wild-type protein kinases (Homo sapiens, UniProt Q13188).
T1 sequence (Q13188 1-491): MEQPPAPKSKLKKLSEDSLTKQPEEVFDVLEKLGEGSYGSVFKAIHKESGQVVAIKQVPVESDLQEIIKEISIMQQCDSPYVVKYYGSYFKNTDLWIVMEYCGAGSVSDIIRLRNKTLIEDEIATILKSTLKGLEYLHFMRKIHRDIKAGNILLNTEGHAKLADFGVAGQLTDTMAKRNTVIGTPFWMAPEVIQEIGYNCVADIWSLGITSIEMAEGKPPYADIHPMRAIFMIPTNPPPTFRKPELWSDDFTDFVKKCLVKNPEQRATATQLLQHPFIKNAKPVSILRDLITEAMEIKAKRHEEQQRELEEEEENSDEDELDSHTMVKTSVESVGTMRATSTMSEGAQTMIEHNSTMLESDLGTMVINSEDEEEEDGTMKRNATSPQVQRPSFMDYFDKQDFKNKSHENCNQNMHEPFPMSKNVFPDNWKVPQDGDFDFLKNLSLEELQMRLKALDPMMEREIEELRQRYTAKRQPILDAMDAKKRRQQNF
As to conditions: singlicate. From the text:
(§1) Table S4. Profiling of two compounds at two concentrations against 320 wild-type protein kinases; singlicate measurement; Residual activities (% of control).

The target of assay [2] is T2, 320 wild-type protein kinases (Homo sapiens, UniProt Q99640).
T2 sequence (Q99640 1-499): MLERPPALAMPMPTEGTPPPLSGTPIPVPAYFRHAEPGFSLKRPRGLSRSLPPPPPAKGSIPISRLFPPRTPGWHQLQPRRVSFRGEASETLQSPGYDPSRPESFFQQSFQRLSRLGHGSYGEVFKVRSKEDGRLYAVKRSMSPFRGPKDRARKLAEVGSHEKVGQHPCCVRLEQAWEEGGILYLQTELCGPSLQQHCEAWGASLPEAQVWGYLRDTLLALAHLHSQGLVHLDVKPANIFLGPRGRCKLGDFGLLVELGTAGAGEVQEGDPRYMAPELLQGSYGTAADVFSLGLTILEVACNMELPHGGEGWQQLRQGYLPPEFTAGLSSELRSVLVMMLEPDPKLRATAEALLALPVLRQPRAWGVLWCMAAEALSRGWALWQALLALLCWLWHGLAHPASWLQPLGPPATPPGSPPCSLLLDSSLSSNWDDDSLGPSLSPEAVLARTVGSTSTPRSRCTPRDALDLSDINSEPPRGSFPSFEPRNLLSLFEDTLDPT
As to conditions: singlicate.
Excerpt: as §1

Assay [3] has as its target T3, 320 wild-type protein kinases (Homo sapiens, UniProt Q02156).
T3 sequence (Q02156 1-737): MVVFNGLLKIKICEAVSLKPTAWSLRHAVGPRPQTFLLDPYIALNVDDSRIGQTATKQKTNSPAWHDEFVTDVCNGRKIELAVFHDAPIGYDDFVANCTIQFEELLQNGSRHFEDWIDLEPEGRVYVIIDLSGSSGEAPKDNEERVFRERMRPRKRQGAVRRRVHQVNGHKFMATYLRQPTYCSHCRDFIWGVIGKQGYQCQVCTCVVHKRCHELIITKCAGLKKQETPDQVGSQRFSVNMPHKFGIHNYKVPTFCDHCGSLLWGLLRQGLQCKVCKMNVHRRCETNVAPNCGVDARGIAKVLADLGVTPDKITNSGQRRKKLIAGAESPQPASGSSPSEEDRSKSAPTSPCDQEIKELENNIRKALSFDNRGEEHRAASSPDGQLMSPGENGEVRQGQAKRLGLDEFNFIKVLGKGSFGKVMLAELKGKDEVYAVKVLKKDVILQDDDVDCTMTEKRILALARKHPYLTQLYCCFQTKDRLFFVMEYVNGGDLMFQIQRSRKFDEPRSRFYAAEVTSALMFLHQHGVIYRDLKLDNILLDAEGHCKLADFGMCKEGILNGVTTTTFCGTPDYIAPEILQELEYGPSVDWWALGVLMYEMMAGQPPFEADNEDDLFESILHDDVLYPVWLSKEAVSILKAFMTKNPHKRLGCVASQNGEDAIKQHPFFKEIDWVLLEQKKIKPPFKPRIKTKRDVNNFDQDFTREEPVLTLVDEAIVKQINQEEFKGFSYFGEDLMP
The settings on record: PKC-epsilon, singlicate.
Excerpt: as §1

Assay [4] concerns the target 320 wild-type protein kinases (Homo sapiens, UniProt Q96RG2). As to conditions: PASK, singlicate.
Excerpt: as §1

Assay [5] addresses T4, 320 wild-type protein kinases (Homo sapiens, UniProt O43781).
T4 sequence (O43781 1-588): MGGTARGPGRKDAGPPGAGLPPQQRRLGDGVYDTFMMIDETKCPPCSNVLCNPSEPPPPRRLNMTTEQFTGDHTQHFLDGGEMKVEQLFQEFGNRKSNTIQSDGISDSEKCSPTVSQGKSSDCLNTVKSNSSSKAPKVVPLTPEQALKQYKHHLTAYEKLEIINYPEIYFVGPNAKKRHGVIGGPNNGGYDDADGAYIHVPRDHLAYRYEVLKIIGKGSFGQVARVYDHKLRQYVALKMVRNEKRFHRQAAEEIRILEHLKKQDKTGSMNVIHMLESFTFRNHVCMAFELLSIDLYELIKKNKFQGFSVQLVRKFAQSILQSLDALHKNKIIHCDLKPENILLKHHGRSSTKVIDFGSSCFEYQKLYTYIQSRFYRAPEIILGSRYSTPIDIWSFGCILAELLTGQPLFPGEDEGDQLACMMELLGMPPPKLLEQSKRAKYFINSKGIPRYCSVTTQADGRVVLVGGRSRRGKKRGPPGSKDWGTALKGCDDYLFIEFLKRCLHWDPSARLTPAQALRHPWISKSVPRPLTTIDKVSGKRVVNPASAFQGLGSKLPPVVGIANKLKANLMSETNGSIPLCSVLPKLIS
As to conditions: singlicate.
Excerpt: as §1

Structures are written as SMILES. Read-outs that look alike come from different tables or passages of the source.

Chain of 320 wild-type protein kinases (Homo sapiens, UniProt Q96RG2) (Q96RG2 whole entry): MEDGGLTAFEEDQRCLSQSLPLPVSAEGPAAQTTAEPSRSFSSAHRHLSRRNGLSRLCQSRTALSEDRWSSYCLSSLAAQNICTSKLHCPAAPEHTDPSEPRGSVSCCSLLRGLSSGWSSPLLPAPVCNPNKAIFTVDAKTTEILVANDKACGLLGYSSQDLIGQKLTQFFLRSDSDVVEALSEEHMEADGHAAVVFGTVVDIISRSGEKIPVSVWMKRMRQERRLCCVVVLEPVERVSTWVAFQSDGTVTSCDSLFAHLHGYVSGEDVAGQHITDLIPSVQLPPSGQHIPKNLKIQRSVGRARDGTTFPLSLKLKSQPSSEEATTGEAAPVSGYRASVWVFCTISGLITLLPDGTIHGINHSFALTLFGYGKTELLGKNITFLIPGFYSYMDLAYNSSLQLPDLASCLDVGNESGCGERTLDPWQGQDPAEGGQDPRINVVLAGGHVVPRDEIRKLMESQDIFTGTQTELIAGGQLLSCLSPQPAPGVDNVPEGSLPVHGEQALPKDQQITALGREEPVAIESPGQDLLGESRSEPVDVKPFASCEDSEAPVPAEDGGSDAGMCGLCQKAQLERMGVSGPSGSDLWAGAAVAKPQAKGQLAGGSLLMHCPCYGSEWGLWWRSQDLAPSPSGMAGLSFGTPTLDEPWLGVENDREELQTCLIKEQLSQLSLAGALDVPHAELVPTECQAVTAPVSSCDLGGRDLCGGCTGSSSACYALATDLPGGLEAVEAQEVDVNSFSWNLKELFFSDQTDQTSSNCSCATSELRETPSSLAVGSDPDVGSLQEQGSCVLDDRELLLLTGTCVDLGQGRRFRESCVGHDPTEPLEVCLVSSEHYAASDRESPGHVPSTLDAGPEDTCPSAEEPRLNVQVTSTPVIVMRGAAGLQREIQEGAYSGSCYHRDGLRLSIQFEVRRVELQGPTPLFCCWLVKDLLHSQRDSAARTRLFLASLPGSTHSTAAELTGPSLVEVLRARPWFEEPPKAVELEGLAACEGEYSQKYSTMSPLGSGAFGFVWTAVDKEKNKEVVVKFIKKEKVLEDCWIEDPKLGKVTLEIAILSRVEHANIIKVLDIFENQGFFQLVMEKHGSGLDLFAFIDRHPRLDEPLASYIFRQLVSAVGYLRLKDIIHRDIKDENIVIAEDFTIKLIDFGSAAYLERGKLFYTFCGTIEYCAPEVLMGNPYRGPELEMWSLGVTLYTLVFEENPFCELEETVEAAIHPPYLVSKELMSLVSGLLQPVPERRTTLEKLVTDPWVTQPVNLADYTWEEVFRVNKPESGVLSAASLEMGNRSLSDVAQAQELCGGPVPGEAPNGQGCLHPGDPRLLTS

Take `C#Cc1cc(Nc2ncnc3cc(OC)c(OC)cc23)ccc1Cl` [Compound 45]: the Residual activity in assay [1] (MST2, 1.0E-06 M) is given as 102 % of control; in assay [1] (MST2, 1.0E-07 M) it was 103 % of control; in assay [2] (PKMYT1, 1.0E-06 M) it was 95 % of control; in assay [2] (PKMYT1, 1.0E-07 M), 114 % of control; in assay [3] (1.0E-06 M), 88 % of control; in assay [3] (1.0E-07 M) it was 89 % of control. Besides, the Residual activity is reported as 93 % of control in assay [4] (1.0E-06 M); 98 % of control in assay [4] (1.0E-07 M); 69 % of control in assay [5] (DYRK3, 1.0E-06 M); 97 % of control in assay [5] (DYRK3, 1.0E-07 M).
In the case of `C#Cc1cc(Nc2ncnc3cc(I)ccc23)ccc1Cl` [Compound 41], the Residual activity in assay [1] (MST2, 1.0E-06 M) is on record as 102 % of control; in assay [1] (MST2, 1.0E-07 M) it was 113 % of control; in assay [2] (PKMYT1, 1.0E-06 M) it was 79 % of control; in assay [2] (PKMYT1, 1.0E-07 M), 88 % of control; in assay [3] (1.0E-06 M) it was 89 % of control; in assay [3] (1.0E-07 M), 82 % of control. Besides, the Residual activity is on record as 101 % of control in assay [4] (1.0E-06 M); 102 % of control in assay [4] (1.0E-07 M); 81 % of control in assay [5] (DYRK3, 1.0E-06 M); 96 % of control in assay [5] (DYRK3, 1.0E-07 M).

(Values after paper PMC9329436, “Optimization of the 4-anilinoquin(az)oline scaffold as epidermal growth factor receptor (EGFR) inhibitors for chordoma utilizing a toxicology profiling assay platform” (Scientific Reports, 2022).)
